ChEMBL document CHEMBL3045595, “Synthesis and characterization of new types of 2-(6-methoxy-2-naphthyl)propionamide derivatives as potential antibacterial and antifungal agents” (2013)
In brackets after ≈: the same amount, converted by molar mass. Activity calls are given as the source filed them. The calls are words filed in the database; no cut-off is given here.

How the values were obtained:
Type in all cases: functional
Pseudomonas aeruginosa [1] = experiment: Antibacterial activity against Pseudomonas aeruginosa RCMB 010043 after 24 hrs by twofold serial dilution method; conditions: RCMB 010043, 24 h
Escherichia coli [2] = experiment: Antibacterial activity against Escherichia coli RCMB 000103 after 24 hrs by twofold serial dilution method; conditions: RCMB 000103, 24 h
Bacillus subtilis [3] = experiment: Antibacterial activity against Bacillus subtilis RCMB 010063 after 24 hrs by twofold serial dilution method; conditions: RCMB 010063, 24 h
Staphylococcus aureus [4] = experiment: Antibacterial activity against Staphylococcus aureus RCMB 010027 after 24 hrs by twofold serial dilution method; conditions: RCMB 010027, 24 h
Pseudomonas aeruginosa [5] = experiment: Antibacterial activity against Pseudomonas aeruginosa RCMB 010043 at 1 mg/ml after 24 hrs by agar well diffusion method; conditions: for zone of inhibition at 1000 µg/mL: RCMB 010043, 24 h, read-out: DIZ
Bacillus subtilis [6] = experiment: Antibacterial activity against Bacillus subtilis RCMB 010063 at 1 mg/ml after 24 hrs by agar well diffusion method; conditions: RCMB 010063, 24 h, read-out: DIZ
Staphylococcus aureus [7] = experiment: Antibacterial activity against Staphylococcus aureus RCMB 010027 at 1 mg/ml after 24 hrs by agar well diffusion method; conditions: RCMB 010027, 24 h, read-out: DIZ
Candida albicans [8] = experiment: Antifungal activity against Candida albicans RCMB 05035
Aspergillus ochraceus [9] = experiment: Antifungal activity against Aspergillus ochraceus RCMB 02593
Candida albicans [10] = experiment: Antifungal activity against Candida albicans RCMB 05035 at 1 mg/ml after 72 hrs by agar well diffusion method; conditions: for zone of inhibition at 1000 µg/mL: RCMB 05035, 72 h, read-out: DIZ
Aspergillus ochraceus [11] = experiment: Antifungal activity against Aspergillus ochraceus RCMB 02593 at 1 mg/ml after 72 hrs by agar well diffusion method; conditions: RCMB 02593, 72 h, read-out: DIZ
Escherichia coli [12] = experiment: Antibacterial activity against Escherichia coli RCMB 000103 at 1 mg/ml after 24 hrs by agar well diffusion method; conditions: for zone of inhibition at 1000 µg/mL: RCMB 000103, 24 h, read-out: DIZ
Escherichia coli [13] = experiment: Antibacterial activity against Escherichia coli RCMB 000103 at 25 ug/ml after 24 hrs by agar well diffusion method; conditions: RCMB 000103, 24 h, read-out: DIZ
Pseudomonas aeruginosa [14] = experiment: Antibacterial activity against Pseudomonas aeruginosa RCMB 010043 at 25 ug/ml after 24 hrs by agar well diffusion method; conditions: RCMB 010043, 24 h, read-out: DIZ
Bacillus subtilis [15] = experiment: Antibacterial activity against Bacillus subtilis RCMB 010063 at 25 ug/ml after 24 hrs by agar well diffusion method; conditions: RCMB 010063, 24 h, read-out: DIZ
Staphylococcus aureus [16] = experiment: Antibacterial activity against Staphylococcus aureus RCMB 010027 at 25 ug/ml after 24 hrs by agar well diffusion method; conditions: RCMB 010027, 24 h, read-out: DIZ
Candida albicans [17] = experiment: Antifungal activity against Candida albicans RCMB 05035 at 25 ug/ml after 72 hrs by agar well diffusion method; conditions: RCMB 05035, 72 h, read-out: DIZ
Aspergillus ochraceus [18] = experiment: Antifungal activity against Aspergillus ochraceus RCMB 02593 at 25 ug/ml after 72 hrs by agar well diffusion method; conditions: RCMB 02593, 72 h, read-out: DIZ

Compound	MIC (Pseudomonas aeruginosa [1]) [µg/mL]	MIC (Escherichia coli [2]) [µg/mL]	MIC (Bacillus subtilis [3]) [µg/mL]	MIC (Staphylococcus aureus [4]) [µg/mL]	zone of inhibition at 1000 µg/mL (Pseudomonas aeruginosa [5]) [mm]	zone of inhibition at 1000 µg/mL (Bacillus subtilis [6]) [mm]	zone of inhibition at 1000 µg/mL (Staphylococcus aureus [7]) [mm]	MIC (Candida albicans [8])	MIC (Aspergillus ochraceus [9]) [µg/mL]	zone of inhibition at 1000 µg/mL (Candida albicans [10]) [mm]	zone of inhibition at 1000 µg/mL (Aspergillus ochraceus [11]) [mm]	zone of inhibition at 1000 µg/mL (Escherichia coli [12]) [mm]	diameter of the inhibition zone (DIZ) (Pseudomonas aeruginosa [5])	other results
O=C(O)c1cn(C2CC2)c2cc(N3CCNCC3)c(F)cc2c1=O [CIPROFLOXACIN]	31.2 (≈ 94.3 µM)	1.95 (≈ 5.89 µM)	0.007 (≈ 0.0211 µM)	0.06 (≈ 0.181 µM)										
COc1ccc2cc(C(C)C(=O)Nc3ccc4c(c3)Sc3ccccc3N4)ccc2c1 (stereo not drawn)	7.81 (≈ 18.3 µM)	7.81 (≈ 18.3 µM)	0.97 (≈ 2.27 µM)	3.9 (≈ 9.14 µM)	13.6	24.6	21.4	31.2 µg/mL (≈ 73.3 µM)	15.6 (≈ 36.6 µM)	16.9	17.6	20.2		
COc1ccc2cc(C(C)C(=O)Nc3ccc(S(=O)(=O)NC(C)=O)cc3)ccc2c1 (stereo not drawn)	125 (≈ 293 µM)	3.9 (≈ 9.14 µM)	0.97 (≈ 2.27 µM)	0.97 (≈ 2.27 µM)	14.5	23.4	23.3	31.2 µg/mL (≈ 73.3 µM)	15.6 (≈ 36.6 µM)	17.8	18.6	21.3		
COc1ccc2cc(C(C)C(=O)Nc3ccc(Nc4ccccc4)cc3)ccc2c1 (stereo not drawn)						15.4	13.9				17.6		inactive	diameter of the inhibition zone (DIZ) (Candida albicans [10]): inactive; diameter of the inhibition zone (DIZ) (Escherichia coli [12]): inactive
COc1ccc2cc(C(C)C3=N/C(=C/c4ccc(F)cc4)C(=O)O3)ccc2c1 (stereo not drawn)	62.5 (≈ 166 µM)	15.6 (≈ 41.6 µM)	3.9 (≈ 10.4 µM)	7.81 (≈ 20.8 µM)	15.3	20.6	20.3	125 µg/mL (≈ 333 µM)	15.6 (≈ 41.6 µM)	19.9	18.3	19.3		
COc1ccc2cc(C(C)C(=O)NCCNC(=O)C(C)c3ccc4cc(OC)ccc4c3)ccc2c1 (stereo not drawn)						14.5	13.1				12.6		inactive	diameter of the inhibition zone (DIZ) (Candida albicans [10]): inactive; diameter of the inhibition zone (DIZ) (Escherichia coli [12]): inactive
COc1ccc2cc(C(C)C(=O)Nc3ccc(CC(=O)O)cc3)ccc2c1 (stereo not drawn)						18.4	17.3			12.2	13.9	16.6	inactive	
CC1(C)S[C@@H]2[C@H](NC(=O)[C@H](N)c3ccccc3)C(=O)N2[C@H]1C(=O)O [AMPICILLIN]														zone of inhibition at 25 µg/mL (Escherichia coli [13]): 21.4 mm; zone of inhibition at 25 µg/mL (Pseudomonas aeruginosa [14]): 17.3 mm; zone of inhibition at 25 µg/mL (Bacillus subtilis [15]): 34.6 mm; zone of inhibition at 25 µg/mL (Staphylococcus aureus [16]): 28.9 mm
COc1ccc2cc(C(C)C(=O)Nc3ccc(C(=O)O)cc3)ccc2c1 (stereo not drawn)	15.6 (≈ 44.7 µM)	1.95 (≈ 5.58 µM)	3.9 (≈ 11.2 µM)	0.24 (≈ 0.687 µM)	15.9	23.7	21.6	62.5 µg/mL (≈ 179 µM)	7.81 (≈ 22.4 µM)	15.6	19.4	20.3		
COc1ccc2cc(C(C)C(=O)NNC(=O)C(C)c3ccc4cc(OC)ccc4c3)ccc2c1 (stereo not drawn)						19.4	17.9			13.5	16	17.1	inactive	
COc1ccc2cc(C(C)C(=O)Nc3ccc(N(C(C)=O)c4ccccc4)cc3)ccc2c1 (stereo not drawn)						17.1	16.2			9.3	12.4	14.6	inactive	
COc1ccc2cc(C(C)C(=O)NCC(=O)O)ccc2c1 (stereo not drawn)						16.4	14.2			20.6	20.9	13.4	inactive	
COc1ccc2cc(C(C)C(=O)NCc3n[nH]c(=S)[nH]3)ccc2c1 (stereo not drawn)	31.2 (≈ 91.3 µM)	7.81 (≈ 22.8 µM)	0.97 (≈ 2.83 µM)	3.9 (≈ 11.4 µM)	16.8	23.9	21.9	31.2 µg/mL (≈ 91.3 µM)	7.81 (≈ 22.8 µM)	18.8	20.2	20.9		
COc1ccc2cc(C(C)C(=O)Nc3ccc(S(=O)(=O)Nc4ncccn4)cc3)ccc2c1 (stereo not drawn)	3.9 (≈ 8.43 µM)	3.9 (≈ 8.43 µM)	7.81 (≈ 16.9 µM)	0.24 (≈ 0.519 µM)	16.8	28.7	25.3	inactive	3.9 (≈ 8.43 µM)		11.7	21.6		diameter of the inhibition zone (DIZ) (Candida albicans [10]): inactive
OC(Cn1cncn1)(Cn1cncn1)c1ccc(F)cc1F [FLUCONAZOLE]								0.24 µg/mL (≈ 0.784 µM)	1.95 (≈ 6.37 µM)					zone of inhibition at 25 µg/mL (Candida albicans [17]): 26.4 mm; zone of inhibition at 25 µg/mL (Aspergillus ochraceus [18]): 21.9 mm
COc1ccc2cc(C(C)C(=O)NC(C)C(=O)O)ccc2c1 (stereo not drawn)						15.8	15.1			10.6	12.7	14.3	inactive	
COc1ccc2cc(C(C)C(=O)N/C(=C/c3ccc(Cl)cc3)C(=O)Nc3ccc(C)cc3)ccc2c1 (stereo not drawn)						19.6	19.9			13.6	14.8	14.3	inactive	
COc1ccc2cc(C(C)C3=N/C(=C/c4ccc(Cl)cc4)C(=O)O3)ccc2c1 (stereo not drawn)						15	13.9				14.5		inactive	diameter of the inhibition zone (DIZ) (Candida albicans [10]): inactive; diameter of the inhibition zone (DIZ) (Escherichia coli [12]): inactive
COc1ccc2cc(C(C)C(=O)NCc3n[nH]c(=S)n3N)ccc2c1 (stereo not drawn)	62.5 (≈ 175 µM)	7.81 (≈ 21.8 µM)	0.97 (≈ 2.71 µM)	3.9 (≈ 10.9 µM)	15.9	23.7	21.6	62.5 µg/mL (≈ 175 µM)	15.6 (≈ 43.7 µM)	20.6	19.4	20.3		
COc1ccc2cc(C(C)C(=O)Nc3ccc(S(=O)(=O)Nc4cc(C)on4)cc3)ccc2c1 (stereo not drawn)	1.95 (≈ 4.19 µM)	3.9 (≈ 8.38 µM)	62.5 (≈ 134 µM)	31.2 (≈ 67.1 µM)	13	21.7	20.6	250 µg/mL (≈ 537 µM)	7.81 (≈ 16.8 µM)	16.5	17.3	19.9		
COc1ccc2cc(C(C)C(=O)Nc3ccc(C)cc3)ccc2c1 (stereo not drawn)						17.2	16.1			12.8	14.7	15.6	inactive	
